Results: patent publication US6689395B2, “Pesticidal compositions containing plant essential oils against mites” (priority 1999, dated 2004)

System: mold mite
Test: Toxicity of plant essential oils fogged into food cartons against mold mites
Assay type: in vivo
Details: for control of the mites (pest mortality): about 1 g test substance fogged into half pint milk carton, about 100 mites per carton, cartons opened at 24 hour intervals, from day one; for control of the mites (mortality): repeated experiment, cartons not opened until day ten
Text: Half pint milk cartons were used as sample food containers. The composition of the carton is multilayer paper, plastic and foil. The last two inner layers are foil and plastic; the food inside the carton is in contact with the plastic. Utilizing a ULV sprayer, the plant essential oils were fogged into the container. Approximately one gram of liquid test substance (i.e. plant essential oil) was deposited into the container. The desired amount of food and approximately 100 mites per carton were then added to the container and the carton was sealed. The materials tested included 2-phenyl ethyl alcohol, 2-phenyl ethyl propionate, trans-anethole, and benzyl alcohol. The cartons were opened at 24 hour intervals, a new carton each interval, to observe for pest mortality and the results were recorded.
The experiment was repeated, but the cartons were not opened until day ten.

Row | Compound | control of the mites (pest mortality) | control of the mites (mortality)
1 | OCCc1ccccc1 [2-phenyl ethyl alcohol] | good control | best results of mortality
2 | CCC(=O)OCCc1ccccc1 [2-phenyl ethyl propionate] | good control | best results of mortality
